The subject of data set [1] is orthotopic FG pancreatic tumors. In words: orthotopic pancreas cancer xenograft model. Format: in vivo, mice. From the text: (§1) The longer cells were exposed to erlotinib the greater the expression level of αvβ3 was observed, FIG. 26b. […] Thus, exposure of histologically distinct tumor cells in vitro or in vivo to EGFR inhibitors selects for a tumor cell population expressing high levels of αvβ3.
(§2) In all cases, β3 expressing tumor cells were intrinsically more resistant to EGFR blockade than β3-negative tumor cell lines (FIG. 26e).
(a) Flow cytometric quantification of cell surface markers after 3 weeks treatment with erlotinib (pancreatic and colon cancer cells) or lapatinib (breast cancer cells). (b) Flow cytometric analysis of αvβ3 expression in FG and Miapaca-2 cells following erlotinib. Error bars represent s.d. (n=3 independent experiments). (c) Top, immunofluorescence staining of integrin αvβ3 in tissue specimens obtained from orthotopic pancreatic tumors treated with vehicle (n=3) or erlotinib (n=4). Scale bar, 50 μm. Bottom, Integrin αvβ3 expression was quantified as ratio of integrin αvβ3 pixel area over nuclei pixel area using Metamorph (*P=0.049 using Mann-Whitney U test). (d) Right, intensity (scale 0 to 3) of β3 expression in mouse orthotopic lung tumors treated with vehicle (n=8) or erlotinib (n=7). Left, immunohistochemical staining of β3. Scale bar, 100 μm. […] Results are expressed as % tumor weight compared to vehicle control. *P<0.05. […]

For data set [2], the system named is phosphorylated TBK1. In words: immunoblot analysis of cells grown in suspension and treated with erlotinib. Format: cell-based, human. The conditions noted are these: erlotinib 0.5 μM. As for the experimental part:
(§3) In addition, it has been shown that NF-κB signaling is essential for KRAS-driven tumor growth and resistance to EGFR blockade^27-29. This prompted us to ask whether αvβ3 could regulate NF-κB activity through RalB activation and thereby promote tumor cell resistance to EGFR targeted therapy. To test this, tumor cells expressing or lacking integrin αvβ3 and/or RalB were grown in the presence or absence of erlotinib and lysates of these cells were analyzed for activated downstream effectors of RalB. […] NF-κB activity was sufficient to account for EGFR inhibitor resistance since ectopically expressed a constitutively active NF-κB (S276D) in β3-negative FG pancreatic tumor cells^30 conferred resistance to EGFR inhibition, see FIG. 29b). […] Together, our studies describe a role for αvβ3 mediating resistance to EGFR inhibition via RalB activation and its downstream effector NF-κB, opening new avenues to target tumors that are resistant to EGFR targeted therapy, see FIG. 29e.
(§4) Immunoblot analysis of FG, FG-β3 and FG-β3 stably expressing non-silencing or RalB-specific ShRNA, grown in suspension and treated with erlotinib (0.5 μM). pTBK1 refers to phospho-S172 TBK1, p-p65 NF-κB refers to phospho-p65 NF-κB S276, pFAK refers to phospho-FAK Tyr 861. Data are representative of three independent experiments. (b) Tumor spheres formation assay of FG cells ectopically expressing vector control, WT NF-κB FLAG tagged or constitutively active S276D NF-κB FLAG tagged constructs treated with erlotinib (0.5 μM). Error bars represent s.d. (n=3 independent experiments). *P<0.05, **P<0.001, NS=not significant. Immunoblot analysis showing NF-κB WT and S276D NF-κB FLAG transfection efficiency. (c) Tumor spheres formation assay of FG-β3 treating with non-silencing (shCTRL) or NF-κB-specific shRNA and exposed to erlotinib (0.5 μM). Error bars represent s.d. (n=3 independent experiments). *P<0.05, NS=not significant. (d) Dose response in FG-β3 cells treated with erlotinib (10 nM to 5 μM), lenalidomide (10 nM to 5 μM) or a combination of erlotinib (10 nM to 5 μM) and lenalidomide (1 μM). Error bars represent s.d. (n=3 independent experiments). *P<0.05, NS=not significant. (e) Model depicting the integrin αvβ3-mediated EGFR TKI resistance and conquering EGFR TKI resistance pathway and its downstream RalB and NF-κB effectors.
(§5) Cells were lysed in either RIPA lysis buffer (50 mM Tris pH 7.4, 100 mM NaCL, 2 mM EDTA, […], 10% Triton, 0.1% SDS) or Triton lysis buffer (50 mM Tris pH 7.5, 150 mN NaCl, 1 mM EDTA, 5 mM MgCl2, 10% Glycerol, 1% Triton) supplemented with complete protease and phosphatase inhibitor mixtures (Roche) and centrifuged at 13,000 g for 10 min at 4° C. Protein concentration was determined by BCA assay. […]
Background: Immunoblotting shows a protein as a band on a membrane.

For data set [3], the system named is phosphorylated NF-κB. The data set is described as above. The following applies: erlotinib 0.5 μM. Type of data set: cell-based, human. The procedure:
as §3, §4, §5

For data set [4], the system named is H441 human lung adenocarcinoma orthotopic tumors. Kind of data set: orthotopic lung cancer xenograft model. Type of data set: in vivo, mice. The conditions noted are these: systemic erlotinib for 7-8 weeks.
From the text: as §1
(a) Flow cytometric quantification of cell surface markers after 3 weeks treatment with erlotinib (pancreatic and colon cancer cells) or lapatinib (breast cancer cells). (b) Flow cytometric analysis of αvβ3 expression in FG and Miapaca-2 cells following erlotinib. Error bars represent s.d. (n=3 independent experiments). […] Bottom, Integrin αvβ3 expression was quantified as ratio of integrin αvβ3 pixel area over nuclei pixel area using Metamorph (*P=0.049 using Mann-Whitney U test). […] Results are expressed as % tumor weight compared to vehicle control. *P<0.05.
Immunostaining was performed according to the manufacturer's recommendations (Vector Labs) on […] sections of paraffin-embedded tumors from the orthotopic xenograft pancreas and lung cancer mouse models^14 or from a metastasis tissue array purchased from US Biomax (MET961). […] Sections stained with integrin β3 and active Ral were scored by a H-score according to the staining intensity (SI) on a scale 0 to 3 within the whole tissue section.

Data set [5] has as its system FG and FG-β3 cells. Kind of data set: tumor sphere formation assay. Format: cell-based, human. The conditions noted are these: for effect of αvβ3 expression on drug resistance: in vitro, FG cells lacking vs expressing αvβ3. As for the experimental part: (n=3 independent experiments); as discussed in detail in Example 1, below.
Therefore, we examined whether αvβ3 expression also promotes resistance to other growth factor inhibitors and/or cytotoxic agents.
as §4, with “Data are representative of three independent experiments. (b) Tumor spheres formation assay of FG cells ectopically expressing vector control, WT NF-κB FLAG tagged or constitutively active S276D NF-κB FLAG tagged constructs treated with erlotinib (0.5 μM).” left out, “significant.” for “significant. (e) Model depicting the integrin αvβ3-mediated EGFR TKI resistance and conquering EGFR TKI resistance pathway and its downstream RalB and NF-κB effectors.”
Tumor spheres formation assays were performed essentially as described previously^17. Briefly, cells were seeded at 1000 to 2000 cells per well and grown for 12 days to 3 weeks. Cells were treated with vehicle (DMSO), erlotinib (10 nM to 5 μM), lapatinib (10 nM to 5 μM), gemcitabine (0.001 nM to 5 μM), OSI-906 (10 nM to 5 μM), lenalidomide (10 nM to 5 μM), or cisplatin (10 nM to 5 μM), diluted in DMSO. The media was replaced with fresh inhibitor every day for erlotinib, lapatinib, lenalidomide and 3 times a week for cisplatin and gemcitabine. Colonies were stained with crystal violet and scored with an Olympus SZH10 microscope. Survival curves were generated at least with five concentration points.

Data set [6] relates to PANC-1 cells. Kind of data set: tumor sphere formation assay. The conditions noted are these: αvβ3 knockdown vs control. Type of data set: cell-based, human.
From the text: as §2
(a) Flow cytometric quantification of cell surface markers after 3 weeks treatment with erlotinib (pancreatic and colon cancer cells) or lapatinib (breast cancer cells). (b) Flow cytometric analysis of αvβ3 expression in FG and Miapaca-2 cells following erlotinib. Error bars represent s.d. (n=3 independent experiments). (c) Top, immunofluorescence staining of integrin αvβ3 in tissue specimens obtained from orthotopic pancreatic tumors treated with vehicle (n=3) or erlotinib (n=4). Scale bar, 50 μm. Bottom, Integrin αvβ3 expression was quantified as ratio of integrin αvβ3 pixel area over nuclei pixel area using Metamorph (*P=0.049 using Mann-Whitney U test). (d) Right, intensity (scale 0 to 3) of β3 expression in mouse orthotopic lung tumors treated with vehicle (n=8) or erlotinib (n=7). Left, immunohistochemical staining of β3. Scale bar, 100 μm. […] (f) Tumor sphere formation assay to establish a dose-response for erlotinib. Error bars represent s.d. (n=3 independent experiments). […] Results are expressed as % tumor weight compared to vehicle control. *P<0.05.
Tumor spheres formation assays were performed essentially as described previously^17. […] Colonies were stained with crystal violet and scored with an Olympus SZH10 microscope.

The subject of data set [7] is G2/M progression. In words: G2/M progression after cilengitide treatment. Type of data set: cell-based.
Data set [8] has as its target avb5 (Homo sapiens, UniProt P06756+P18084). In words: cell-free integrin binding assay.
For data set [9], the system named is orthotopic GBM tumors. In words: orthotopic brain tumor mouse model. Format: in vivo.
For data set [10], the system named is C-RAF S338 phosphorylation. Kind of data set: C-RAF S338 phosphorylation in brain tumors. Format: in vivo. The following applies: mouse orthotopic model. The text has this:
(§6) These events are associated with reduced cell proliferation in vitro and tumor regression in vivo.

For data set [11], the system named is C-RAF Ser338. In words: C-RAF Ser338 phosphorylation in human glioblastoma cell lines. Type of data set: cell-based.
From the text: as §6

Data set [12] concerns angiogenesis and tumor growth. Kind of data set: angiogenesis and tumor growth in vivo.
The subject of data set [13] is patients with cancer. Kind of data set: cancer patient studies. Type of data set: in vivo, human. The conditions noted are these: various patients with cancer.
For data set [14], the target named is avb3 (Homo sapiens, UniProt P05106+P06756). Kind of data set: cell-free integrin binding assay.

Like-named read-outs stand apart in the source and are kept apart here.

Sequence of avb5 (P06756 31-889 limits assumed): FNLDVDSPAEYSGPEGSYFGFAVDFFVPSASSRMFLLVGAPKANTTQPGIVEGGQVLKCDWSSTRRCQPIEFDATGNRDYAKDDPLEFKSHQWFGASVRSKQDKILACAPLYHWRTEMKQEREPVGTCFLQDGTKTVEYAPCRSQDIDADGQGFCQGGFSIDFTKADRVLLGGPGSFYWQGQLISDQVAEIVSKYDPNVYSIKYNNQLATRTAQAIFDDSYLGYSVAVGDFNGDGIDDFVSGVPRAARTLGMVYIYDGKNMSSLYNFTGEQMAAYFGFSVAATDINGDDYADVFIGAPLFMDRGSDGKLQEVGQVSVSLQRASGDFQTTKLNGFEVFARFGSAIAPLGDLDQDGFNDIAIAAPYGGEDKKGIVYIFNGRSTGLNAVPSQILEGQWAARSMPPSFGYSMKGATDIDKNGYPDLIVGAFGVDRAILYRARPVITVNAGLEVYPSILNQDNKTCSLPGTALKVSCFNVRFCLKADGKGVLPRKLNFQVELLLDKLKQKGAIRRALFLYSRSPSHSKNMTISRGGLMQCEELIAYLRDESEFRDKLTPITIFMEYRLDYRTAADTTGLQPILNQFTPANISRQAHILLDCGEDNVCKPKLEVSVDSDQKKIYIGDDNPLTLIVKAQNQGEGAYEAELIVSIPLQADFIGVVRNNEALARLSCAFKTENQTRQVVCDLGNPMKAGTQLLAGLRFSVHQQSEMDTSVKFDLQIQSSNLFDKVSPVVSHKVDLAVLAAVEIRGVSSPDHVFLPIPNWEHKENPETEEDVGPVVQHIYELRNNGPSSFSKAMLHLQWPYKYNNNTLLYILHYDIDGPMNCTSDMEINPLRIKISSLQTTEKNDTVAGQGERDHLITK
Sequence of avb5 (P06756 891-1048 limits assumed): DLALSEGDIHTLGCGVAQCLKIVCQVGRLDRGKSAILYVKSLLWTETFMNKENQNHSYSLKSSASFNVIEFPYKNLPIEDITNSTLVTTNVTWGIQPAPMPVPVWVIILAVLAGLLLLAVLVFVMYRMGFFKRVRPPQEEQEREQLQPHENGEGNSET
Sequence of avb5 (P18084 24-799): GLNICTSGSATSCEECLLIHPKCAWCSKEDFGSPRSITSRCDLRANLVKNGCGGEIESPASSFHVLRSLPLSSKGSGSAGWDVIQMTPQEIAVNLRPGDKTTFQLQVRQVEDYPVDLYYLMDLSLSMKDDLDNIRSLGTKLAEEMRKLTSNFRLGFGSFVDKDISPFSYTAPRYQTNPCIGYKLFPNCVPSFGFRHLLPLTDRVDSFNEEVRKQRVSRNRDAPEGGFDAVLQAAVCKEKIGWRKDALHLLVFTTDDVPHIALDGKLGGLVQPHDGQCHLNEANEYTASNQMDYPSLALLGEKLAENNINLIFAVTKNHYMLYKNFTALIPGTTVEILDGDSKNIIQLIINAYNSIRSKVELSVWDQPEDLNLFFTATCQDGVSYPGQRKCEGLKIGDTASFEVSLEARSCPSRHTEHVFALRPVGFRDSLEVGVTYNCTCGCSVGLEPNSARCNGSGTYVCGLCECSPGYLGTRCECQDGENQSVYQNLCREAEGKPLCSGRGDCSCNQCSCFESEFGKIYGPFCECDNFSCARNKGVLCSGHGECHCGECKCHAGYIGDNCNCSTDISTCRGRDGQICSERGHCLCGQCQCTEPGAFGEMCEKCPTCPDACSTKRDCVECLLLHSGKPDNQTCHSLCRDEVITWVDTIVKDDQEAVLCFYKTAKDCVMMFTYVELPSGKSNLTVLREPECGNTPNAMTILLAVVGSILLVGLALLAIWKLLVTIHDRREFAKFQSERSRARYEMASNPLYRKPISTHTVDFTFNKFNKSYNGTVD
Sequence of avb3 (P06756 31-889 limits assumed): as the sequence (P06756 31-889 limits assumed) above
Sequence of avb3 (P06756 891-1048 limits assumed): as the sequence (P06756 891-1048 limits assumed) above
Sequence of avb3 (P05106 27-788): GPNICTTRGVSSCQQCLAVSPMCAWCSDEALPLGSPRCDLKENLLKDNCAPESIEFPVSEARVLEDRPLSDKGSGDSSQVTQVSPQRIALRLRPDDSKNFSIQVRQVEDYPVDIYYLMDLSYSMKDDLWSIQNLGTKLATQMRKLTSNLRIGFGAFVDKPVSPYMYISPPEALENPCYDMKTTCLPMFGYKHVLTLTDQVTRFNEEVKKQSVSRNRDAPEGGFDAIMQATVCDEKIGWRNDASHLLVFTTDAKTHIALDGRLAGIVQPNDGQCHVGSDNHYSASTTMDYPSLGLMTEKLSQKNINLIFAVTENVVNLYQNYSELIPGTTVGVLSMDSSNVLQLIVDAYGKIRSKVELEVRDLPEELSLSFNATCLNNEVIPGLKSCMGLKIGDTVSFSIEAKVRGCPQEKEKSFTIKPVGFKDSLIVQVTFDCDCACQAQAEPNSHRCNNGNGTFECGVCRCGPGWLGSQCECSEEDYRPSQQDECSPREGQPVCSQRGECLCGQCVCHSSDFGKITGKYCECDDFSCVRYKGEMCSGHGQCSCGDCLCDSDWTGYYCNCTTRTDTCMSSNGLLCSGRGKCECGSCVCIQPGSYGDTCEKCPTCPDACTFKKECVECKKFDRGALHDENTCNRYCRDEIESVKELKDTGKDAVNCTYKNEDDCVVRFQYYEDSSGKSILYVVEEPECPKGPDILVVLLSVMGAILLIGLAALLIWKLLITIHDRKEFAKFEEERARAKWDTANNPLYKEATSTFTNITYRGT

Take `C#Cc1cccc(Nc2ncnc3cc(OCCOC)c(OCCOC)cc23)c1` [erlotinib]: the “increase in αvβ3 expression” value in data set [1] (four weeks of erlotinib treatment) is recorded as 10 fold. Besides, in data set [1] (orthotopic pancreatic tumors after systemic treatment), the “effect of ectopic expression of αvβ3 on drug resistance” value is on record as “dramatically increased erlotinib resistance”. Besides, the entries for the “levels of phosphorylated TBK1” value in data set [2] (αvβ3 negative cells) and in [2] (β3-positive cells) were “reduced levels” and “remained activated”, respectively. Besides, the “levels of phosphorylated NF-κB” value in [3] (αvβ3 negative cells) was “reduced levels”; in [3] (β3-positive cells) it was “remained activated”. Further, in data set [4], the “integrin αvβ3 expression compared with vehicle-treated tumors” value is “qualitative increase”. For the same molecule, the “effect of αvβ3 expression on drug resistance” value (shortened to “effect of αvβ3 expression”) in data set [5] is on record as “dramatically increased erlotinib resistance”. In addition, the “erlotinib sensitivity under genetic or pharmacological inhibition of NF-κB” value in data set [5] (β3-positive cells, FIG. 29d combination with lenalidomide (1 μM)) is on record as “completely restored erlotinib sensitivity”. Moreover, in data set [6], the “increase in tumor cell sensitivity on knockdown of αvβ3” value is 10 fold.

For the molecule `CC(C)[C@H]1C(=O)N[C@@H](CCCN=C(N)N)C(=O)NCC(=O)N[C@@H](CC(=O)O)C(=O)N[C@H](Cc2ccccc2)C(=O)N1C` [cilengitide], the G2/M progression result in [7] is given as “blocks G2/M progression”. For the same molecule, the “inhibition of ligand binding to integrin avb5” value in data set [8] is reported as “inhibit ligand binding”; in [8] (listed as EMD 121974) it was “potent inhibitor”. Moreover, the “orthotopic GBM tumor vascularization and growth” value in data set [9] (CD31, Ki-67 and TUNEL staining) is “inhibits orthotopic GBM tumor vascularization and growth”. For the same molecule, in data set [9] (GBM tumors implanted in the brain), the tumor burden result is “decreases tumor burden”. The “orthotopic GBM tumor burden” value in [9] (sub-optimal doses of cilengitide and radiation combined) was “synergize to reduce orthotopic GBM tumor burden”. The figures for the “C-RAF S338 phosphorylation” value in data set [10] and in data set [10] (listed as Cilengitide) were “blocks C-RAF S338 phosphorylation” and “prevents the activation/phosphorylation of C-RAF Ser338”, respectively. For the same molecule, the “activation/phosphorylation of C-RAF Ser338” value in [11] is recorded as “prevents the activation/phosphorylation of C-RAF Ser338”. The “angiogenesis and tumor growth in vivo” value in data set [12] was “inhibited angiogenesis and tumor growth”. The “efficacy in cancer patients” value in data set [13] is given as “potentially efficacious in some patients”. Further, the “toxicity in cancer patients” value in [13] is given as “non-toxic”. The “inhibition of ligand binding to integrin avb3” value in [14] is reported as “inhibit ligand binding”; in [14] (listed as EMD 121974), “potent inhibitor”.

Regarding `C[C@]1(O)C[C@@H](c2nc(-c3ccc4ccc(-c5ccccc5)nc4c3)c3c(N)nccn32)C1` [OSI-906], the “effect of αvβ3 expression” value in [5] is recorded as “induced resistance”.

Regarding `Nc1ccn([C@@H]2O[C@H](CO)[C@@H](O)C2(F)F)c(=O)n1` [gemcitabine], in data set [5], the “effect of αvβ3 expression” value is “failed to protect cells”.

Take `N.N.[Cl][Pt][Cl]` [cisplatin]: the “effect of αvβ3 expression” value in data set [5] is recorded as “failed to protect cells”.

The values above are taken from patent US20140154264A1, “COMPOSITIONS AND METHODS FOR TREATING CANCER AND DISEASES AND CONDITIONS RESPONSIVE TO CELL GROWTH INHIBITION” (THE REGENTS OF THE UNIVERSITY OF CALIFORNIA, priority 2011, published 2014).
